This is an account of results in ChEMBL document CHEMBL5614424, “Natural Product-Inspired Discovery of Naphthoquinone-Furo-Piperidine Derivatives as Novel STAT3 Inhibitors for the Treatment of Triple-Negative Breast Cancer” (J Med Chem, 2024).

The source made the active and inactive calls. No cut-off for these calls is given here.

Data set [1] can be described thus: Tmax in male rat at 10 mg/kg, ip measured upto 24 hrs by LC/MS/MS analysis. The data set is classed as ADME, organism-based. To be noted: in vivo.
Data set [2] can be described thus: Oral bioavailability in male rat at 10 mg/kg measured upto 24 hrs by LC/MS/MS analysis. As to conditions: in vivo. The data set is classed as ADME, organism-based.
Data set [3] is described as follows: AUC(0 to t) in male rat at 5 mg/kg, iv measured upto 24 hrs by LC/MS/MS analysis. The data set is classed as ADME, organism-based. To be noted: in vivo.
Data set [4] can be described thus: Cmax in male rat at 10 mg/kg, po measured upto 24 hrs by LC/MS/MS analysis. The class given is ADME, organism-based. To be noted: in vivo.
Data set [5] in a line: AUC(0 to infinity) in male rat at 10 mg/kg, po measured upto 24 hrs by LC/MS/MS analysis. The class given is ADME, organism-based. To be noted: in vivo.
A short description of data set [6]: Cmax in male rat at 10 mg/kg, ip measured upto 24 hrs by LC/MS/MS analysis. The class given is ADME, organism-based. As to conditions: in vivo.
The nature of data set [7]: Tmax in male rat at 5 mg/kg, iv measured upto 24 hrs by LC/MS/MS analysis. To be noted: in vivo. The data set is classed as ADME, organism-based.
Data set [8] is described as follows: Half life in male rat at 10 mg/kg, po measured upto 24 hrs by LC/MS/MS analysis. As to conditions: in vivo. The class given is ADME, organism-based.
Data set [9] in a line: AUC(0 to infinity) in male rat at 10 mg/kg, ip measured upto 24 hrs by LC/MS/MS analysis. The data set is classed as ADME, organism-based. As to conditions: in vivo.
A short description of data set [10]: Half life in male rat at 10 mg/kg, ip measured upto 24 hrs by LC/MS/MS analysis. The class given is ADME, organism-based. As to conditions: in vivo.
Data set [11] is described as follows: Tmax in male rat at 10 mg/kg, po measured upto 24 hrs by LC/MS/MS analysis. The data set is classed as ADME, organism-based. As to conditions: in vivo.
A short description of data set [12]: AUC(0 to t) in male rat at 10 mg/kg, po measured upto 24 hrs by LC/MS/MS analysis. The class given is ADME, organism-based. As to conditions: in vivo.
Data set [13] can be described thus: AUC(0 to t) in male rat at 10 mg/kg, ip measured upto 24 hrs by LC/MS/MS analysis. The class given is ADME, organism-based. As to conditions: in vivo.
The nature of data set [14]: AUC(0 to infinity) in male rat at 5 mg/kg, iv measured upto 24 hrs by LC/MS/MS analysis. To be noted: in vivo. The class given is ADME, organism-based.
Data set [15] in a line: Cmax in male rat at 5 mg/kg, iv measured upto 24 hrs by LC/MS/MS analysis. To be noted: in vivo. The data set is classed as ADME, organism-based.
A short description of data set [16]: Half life in male rat at 5 mg/kg, iv measured upto 24 hrs by LC/MS/MS analysis. The class given is ADME, organism-based. As to conditions: in vivo.
For data set [17], the system named is MDA-MB-468. The data set can be described thus: Induction of apoptosis in human MDA-MB-468 cells assessed as early apoptotic cells at 5 uM measured after 24 hrs incubation by the annexin V/propidium iodide (PI) double staining assay (reference value: 3.98%). The data set is classed as functional.
The test system of data set [18] is MDA-MB-231. The data set can be described thus: Induction of apoptosis in human MDA-MB-231 cells assessed as late apoptotic cells at 5 uM measured after 24 hrs incubation by the annexin V/propidium iodide (PI) double staining assay (reference value: 2.69%). The data set is classed as functional.
Data set [19] concerns MDA-MB-468. The data set can be described thus: Induction of apoptosis in human MDA-MB-468 cells assessed as late apoptotic cells at 5 uM measured after 24 hrs incubation by the annexin V/propidium iodide (PI) double staining assay (reference value: 3.64%). The data set is classed as functional.
The nature of data set [20]: Antiproliferative activity against human MCF-10A cells assessed as cell viability incubated for 48 hrs measured after additional incubation with MTT. The data set is classed as toxicity, cell-based.
In data set [21] the test system is MDA-MB-231. The data set can be described thus: Antiproliferative activity against human MDA-MB-231 cells assessed as cell viability incubated for 48 hrs measured after additional incubation with MTT. The class given is functional, cell-based. To be noted: MDA-MB-231, 48 h.
Data set [22] relates to MDA-MB-231. The data set can be described thus: Induction of apoptosis in human MDA-MB-231 cells assessed as early apoptotic cells at 5 uM measured after 24 hrs incubation by the annexin V/propidium iodide (PI) double staining assay (reference value: 2.46%). The class given is functional.
Data set [23] concerns MDA-MB-468. The data set can be described thus: Antiproliferative activity against human MDA-MB-468 cells assessed as cell viability incubated for 48 hrs measured after additional incubation with MTT. The data set is classed as functional, cell-based. As to conditions: MDA-MB-468, 48 h.
In data set [24] the target is Signal transducer and activator of transcription 3 (Homo sapiens) (UniProt P40763). The data set can be described thus: Suppression of STAT3 activation in human MDA-MB-231 cell assessed as decrease in phosphorylated STAT3 (p-STAT3 Tyr705) level at 3 uM measured after 24 hrs by Western blot analysis. The class given is cell-based.
Chain of Signal transducer and activator of transcription 3 (Homo sapiens) (P40763 whole entry): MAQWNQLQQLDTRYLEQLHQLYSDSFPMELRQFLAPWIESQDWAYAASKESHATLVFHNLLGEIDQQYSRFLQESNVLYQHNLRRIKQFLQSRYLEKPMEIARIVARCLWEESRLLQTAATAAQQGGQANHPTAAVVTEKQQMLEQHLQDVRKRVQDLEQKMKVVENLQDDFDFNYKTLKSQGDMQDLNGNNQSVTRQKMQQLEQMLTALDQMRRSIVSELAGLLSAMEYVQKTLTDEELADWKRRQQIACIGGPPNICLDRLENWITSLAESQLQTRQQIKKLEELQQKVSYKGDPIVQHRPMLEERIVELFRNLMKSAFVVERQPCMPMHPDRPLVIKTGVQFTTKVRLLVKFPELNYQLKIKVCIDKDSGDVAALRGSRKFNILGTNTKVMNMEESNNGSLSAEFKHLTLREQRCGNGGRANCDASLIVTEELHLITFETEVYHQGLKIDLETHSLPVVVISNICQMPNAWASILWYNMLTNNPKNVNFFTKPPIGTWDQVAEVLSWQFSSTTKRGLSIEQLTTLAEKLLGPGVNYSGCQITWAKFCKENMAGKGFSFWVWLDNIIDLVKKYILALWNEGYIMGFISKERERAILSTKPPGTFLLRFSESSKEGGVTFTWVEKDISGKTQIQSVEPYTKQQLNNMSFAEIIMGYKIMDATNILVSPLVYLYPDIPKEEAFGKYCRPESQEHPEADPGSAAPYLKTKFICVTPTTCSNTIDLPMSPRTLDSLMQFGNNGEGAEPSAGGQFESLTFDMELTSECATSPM
The subject of the next data set is L02. The data set can be described thus: Antiproliferative activity against human L02 cells assessed as cell viability incubated for 48 hrs measured after additional incubation with MTT. The data set is classed as functional, cell-based. To be noted: L02, 48 h.
In data set [25] the target is Signal transducer and activator of transcription 3 (Homo sapiens) (UniProt P40763). The data set can be described thus: Suppression of STAT3 activation in human MDA-MB-468 cell assessed as decrease in phosphorylated STAT3 (p-STAT3 Tyr705) level at 3 uM measured after 24 hrs by Western blot analysis. The class given is cell-based. On the technique in general: A western blot detects proteins with antibodies after separation by electrophoresis.

Consider `CC(C)C[C@@H](CO)N1CCc2c(oc3c2C(=O)C(=O)c2ccccc2-3)C1.Cl`, for which the Tmax in data set [1] is 0.1 h; in data set [7] it was 4.8 min; in [11], 0.4 h. In data set [2], this compound displayed a bioavailability of 10.9%. In addition, the AUC(0-t) at 24 h in data set [3] stood at 490 ng·h/mL; in data set [12], 107 ng·h/mL; in [13], 571 ng·h/mL. Moreover, the Cmax in data set [4] came to 78.4 ng/mL; in data set [6], 272 ng/mL; in [15], 972 ng/mL. Also, the area under the curve AUC(0-inf) in data set [5] was determined as 106 ng·h/mL; in data set [9] it was 523 ng·h/mL; in [14], 493 ng·h/mL. The half-life is 6.5 h in [8], 17.2 h in data set [10] and 17.2 h in [16].
As for `CC(=O)c1cc2c(o1)C(=O)c1ccccc1C2=O` [NAPABUCASIN], the Activity was 6.32% with MDA-MB-468 [17], 12.07% in the data set with MDA-MB-231 [18], 10% with MDA-MB-468 [19] and 4.76% in the data set with MDA-MB-231 [22]. Besides, the IC50 at 48 h in data set [20] was found to be 7940 nM. For the same compound, the IC50 in the data set on MDA-MB-231 [21] stood at 2940 nM; with MDA-MB-468 [23], 5220 nM.
For the compound `O=C1C(=O)c2c(oc3c2CCN(CCO)C3)-c2ccccc21`, the Tmax in data set [1] stood at 0.7 h; in [7], 4.8 min; in [11], 1.1 h. Further, in [2], the bioavailability came to 3.8%. In addition, the AUC(0-t) at 24 h in data set [3] worked out at 611 ng·h/mL; in [12], 47.2 ng·h/mL; in [13], 219 ng·h/mL. Further, the Cmax came to 34.4 ng/mL in [4], 107 ng/mL in [6] and 237 ng/mL in data set [15]. Also, the AUC(0-inf) in data set [5] came to 50.1 ng·h/mL; in data set [9], 241 ng·h/mL; in data set [14], 645 ng·h/mL. Besides, the half-life is 4 h in data set [8], 3.5 h in [10] and 2.4 h in [16]. For the same compound, the inhibition result in [24] and in data set [25] was “Active” each time. Also, the concentration for half-maximal inhibition (IC50) at 48 h in [20] came to 2890 nM. The IC50 stood at 1190 nM in the data set with MDA-MB-231 [21], 3910 nM in the data set on L02 and 1570 nM in the data set on MDA-MB-468 [23].

The Tmax is the time at which the peak concentration occurs. What is called bioavailability is dose-corrected exposure relative to a reference, in per cent. Lower therefore signals little systemic uptake. What is called AUC(0-t) is exposure summed from dosing to a finite time, without extrapolation to infinity. The Cmax is the highest concentration seen after dosing. As usually defined, the AUC(0-inf) is total exposure, with the tail of the curve extrapolated. Read a high AUC(0-inf) as high exposure. Usually half-life stands for the time in which the quantity being followed falls by half. Read a low half-life as rapid decline. As usually defined, the IC50 is the concentration that inhibits the measured activity by half.
